Assay results: PubChem BioAssay AID1963422 (Molecular Pharmacology Branch, DTP, NCI, 2024)

System: 463943-066-T-J2-PDC complex spheroid growth
Test: Anticancer human tumor 463943-066-T-J2-PDC patient-derived colon adenocarcinoma cell line growth inhibition [Asc]
Conditions: for IC50: curve of first compound; for viability, T/C: stronger effect = lower value; active = viability on the fitted dose curve at most 10% of control; inactive = the rest
Outline: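 Complex solid-tumor spheroids incorporating human endothelial and mesenchymal stem cells received single agents or combinations over half-log dilution ranges anchored to clinical Cmax.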

[1] = second compound 0.00316 µM, first compound 0.00316 µM
[2] = second compound 0.00316 µM, first compound 0.01 µM
[3] = second compound 0.00316 µM, first compound 0.0316 µM
[4] = second compound 0.00316 µM, first compound 0.1 µM
[5] = second compound 0.00316 µM, first compound 0.316 µM
[6] = second compound 0.00316 µM, first compound 1 µM
[7] = second compound 0.01 µM, first compound 0.00316 µM
[8] = second compound 0.01 µM, first compound 0.01 µM
[9] = second compound 0.01 µM, first compound 0.0316 µM
[10] = second compound 0.01 µM, first compound 0.1 µM
[11] = second compound 0.01 µM, first compound 0.316 µM
[12] = second compound 0.01 µM, first compound 1 µM
[13] = second compound 0.0316 µM, first compound 0.00316 µM
[14] = second compound 0.0316 µM, first compound 0.01 µM
[15] = second compound 0.0316 µM, first compound 0.0316 µM
[16] = second compound 0.0316 µM, first compound 0.1 µM
[17] = second compound 0.0316 µM, first compound 0.316 µM
[18] = second compound 0.0316 µM, first compound 1 µM
[19] = second compound 0.1 µM, first compound 0.00316 µM
[20] = second compound 0.1 µM, first compound 0.01 µM
[21] = second compound 0.1 µM, first compound 0.0316 µM
[22] = second compound 0.1 µM, first compound 0.1 µM
[23] = second compound 0.1 µM, first compound 0.316 µM
[24] = second compound 0.1 µM, first compound 1 µM
[25] = second compound 0.316 µM, first compound 0.00316 µM
[26] = second compound 0.316 µM, first compound 0.01 µM
[27] = second compound 0.316 µM, first compound 0.0316 µM
[28] = second compound 0.316 µM, first compound 0.1 µM
[29] = second compound 0.316 µM, first compound 0.316 µM
[30] = second compound 0.316 µM, first compound 1 µM
[31] = second compound 1 µM, first compound 0.00316 µM
[32] = second compound 1 µM, first compound 0.01 µM
[33] = second compound 1 µM, first compound 0.0316 µM
[34] = second compound 1 µM, first compound 0.1 µM
[35] = second compound 1 µM, first compound 0.316 µM
[36] = second compound 1 µM, first compound 1 µM
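Note: compound exposure lasted 7 days.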
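Throughout, for viability, T/C: 100% = DMSO vehicle control wells.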

CCN1CCN(Cc2ccc(Nc3ncc(F)c(-c4cc(F)c5nc(C)n(C(C)C)c5c4)n3)nc2)CC1 + CNC(C)C(=O)NC1CN(S(=O)(=O)c2cccc(S(=O)(=O)N3CCC4CCC(C(=O)NC(c5ccccc5)c5ccccc5)N4C(=O)C(NC(=O)C(C)NC)C3)c2)CCC2CCC(C(=O)NC(c3ccccc3)c3ccccc3)N2C1=O
> 1000 nM: IC50 (second compound 0.00316 µM) | IC50 (second compound 0.01 µM) | IC50 (second compound 0.0316 µM) | IC50 (second compound 0.1 µM) | IC50 (second compound 0.316 µM) | IC50 (second compound 1 µM)
inactive: viability, T/C [1] 87.7% | viability, T/C [2] 92.7% | viability, T/C [3] 88% | viability, T/C [4] 93.6% | viability, T/C [5] 109% | viability, T/C [6] 120% | viability, T/C [7] 99.2% | viability, T/C [8] 102% | viability, T/C [9] 99.8% | viability, T/C [10] 92.2% | viability, T/C [11] 123% | viability, T/C [12] 121% | viability, T/C [13] 103% | viability, T/C [14] 108% | viability, T/C [15] 94.9% | viability, T/C [16] 101% | viability, T/C [17] 116% | viability, T/C [18] 128% | viability, T/C [19] 89% | viability, T/C [20] 92.3% | viability, T/C [21] 89.6% | viability, T/C [22] 95.5% | viability, T/C [23] 113% | viability, T/C [24] 110% | viability, T/C [25] 92.3% | viability, T/C [26] 103% | viability, T/C [27] 99.7% | viability, T/C [28] 89.6% | viability, T/C [29] 109% | viability, T/C [30] 118% | viability, T/C [31] 88.8% | viability, T/C [32] 92.5% | viability, T/C [33] 84% | viability, T/C [34] 94% | viability, T/C [35] 120% | viability, T/C [36] 117%

Cn1ncnc1[C@H]1c2n[nH]c(=O)c3cc(F)cc(c23)N[C@@H]1c1ccc(F)cc1 + CNC(C)C(=O)NC1CN(S(=O)(=O)c2cccc(S(=O)(=O)N3CCC4CCC(C(=O)NC(c5ccccc5)c5ccccc5)N4C(=O)C(NC(=O)C(C)NC)C3)c2)CCC2CCC(C(=O)NC(c3ccccc3)c3ccccc3)N2C1=O
> 100 nM: IC50 (second compound 0.00316 µM) | IC50 (second compound 0.01 µM) | IC50 (second compound 0.0316 µM) | IC50 (second compound 0.1 µM) | IC50 (second compound 0.316 µM) | IC50 (second compound 1 µM)
inactive: viability, T/C (second compound 0.00316 µM, first compound 0.000316 µM) 92.7% | viability, T/C (second compound 0.00316 µM, first compound 0.001 µM) 91.4% | viability, T/C [1] 94.3% | viability, T/C [2] 94% | viability, T/C [3] 101% | viability, T/C [4] 92.4% | viability, T/C (second compound 0.01 µM, first compound 0.000316 µM) 92.4% | viability, T/C (second compound 0.01 µM, first compound 0.001 µM) 89.9% | viability, T/C [7] 94.3% | viability, T/C [8] 94.8% | viability, T/C [9] 97.3% | viability, T/C [10] 87.2% | viability, T/C (second compound 0.0316 µM, first compound 0.000316 µM) 91.6% | viability, T/C (second compound 0.0316 µM, first compound 0.001 µM) 97.8% | viability, T/C [13] 99.2% | viability, T/C [14] 94% | viability, T/C [15] 103% | viability, T/C [16] 85.6% | viability, T/C (second compound 0.1 µM, first compound 0.000316 µM) 104% | viability, T/C (second compound 0.1 µM, first compound 0.001 µM) 93.9% | viability, T/C [19] 100% | viability, T/C [20] 91.9% | viability, T/C [21] 105% | viability, T/C [22] 93.9% | viability, T/C (second compound 0.316 µM, first compound 0.000316 µM) 98.3% | viability, T/C (second compound 0.316 µM, first compound 0.001 µM) 93% | viability, T/C [25] 89.4% | viability, T/C [26] 93% | viability, T/C [27] 99.7% | viability, T/C [28] 85.4% | viability, T/C (second compound 1 µM, first compound 0.000316 µM) 89.9% | viability, T/C (second compound 1 µM, first compound 0.001 µM) 86.8% | viability, T/C [31] 84.2% | viability, T/C [32] 87.5% | viability, T/C [33] 80.8% | viability, T/C [34] 83.2%

O=C(c1ccc(F)c(F)c1Nc1ccc(I)cc1F)N1CC(O)([C@@H]2CCCCN2)C1 + CNC(C)C(=O)NC1CN(S(=O)(=O)c2cccc(S(=O)(=O)N3CCC4CCC(C(=O)NC(c5ccccc5)c5ccccc5)N4C(=O)C(NC(=O)C(C)NC)C3)c2)CCC2CCC(C(=O)NC(c3ccccc3)c3ccccc3)N2C1=O
343 nM: IC50 (second compound 0.01 µM)
304 nM: IC50 (second compound 0.0316 µM)
inactive: viability, T/C [1] 88.3% | viability, T/C [2] 76.9% | viability, T/C [3] 59.4% | viability, T/C [4] 58.4% | viability, T/C [5] 40.4% | viability, T/C [6] 20.8% | viability, T/C [7] 94.6% | viability, T/C [8] 88.3% | viability, T/C [9] 71.8% | viability, T/C [10] 65.9% | viability, T/C [11] 51.3% | viability, T/C [12] 36.9% | viability, T/C [13] 102% | viability, T/C [14] 81.6% | viability, T/C [15] 69% | viability, T/C [16] 67.2% | viability, T/C [17] 55% | viability, T/C [18] 32.6% | viability, T/C [19] 85.1% | viability, T/C [20] 82.9% | viability, T/C [21] 64.4% | viability, T/C [22] 56% | viability, T/C [23] 46.8% | viability, T/C [24] 24.7% | viability, T/C [25] 91.1% | viability, T/C [26] 79.2% | viability, T/C [27] 66.5% | viability, T/C [28] 60% | viability, T/C [29] 49.9% | viability, T/C [30] 31.8% | viability, T/C [31] 82% | viability, T/C [32] 68.1% | viability, T/C [33] 66.3% | viability, T/C [34] 61.4% | viability, T/C [35] 47.4% | viability, T/C [36] 33.4%
173 nM: IC50 (second compound 0.1 µM)
125 nM: IC50 (second compound 0.00316 µM)
229 nM: IC50 (second compound 0.316 µM)
238 nM: IC50 (second compound 1 µM)
